The numbers were not newly measured in paper PMC9207678 (Journal of Mass Spectrometry and Advances in the Clinical …, 2022), which cites them from elsewhere.

The conditions of this data set: ratio to insulin, ref [2], [3].

As to C-peptide, the “half-life in circulation relative to insulin” value is on record as 6–10 times.
